Where only a bound is given, the exact number is not on record here.

The test has as its target T1, HIV-integrase (Human immunodeficiency virus type 1 group M subtype B, UniProt P12497).
T1 construct: Recombinant integrase (0.26 ng) was incubated with the beads
Put plainly: HIV-Integrase Inhibition Activity (SPA bead integration assay with P33 labeled target DNA). The test is classed as biochemical. Conditions: recombinant integrase, class symbols; read-out: in vitro activity. As for the experimental part: HIV-Integrase Inhibition Activity. To evaluate in-vitro activity against HIV-integrase, 5 pmole of biotin labeled substrate DNA was bound to 100 μg of Streptavidin coated PVT SPA beads (Amersham Pharmacia Biotech). Recombinant integrase (0.26 ng) was incubated with the beads for 90 min at 37° C. Unbound enzyme was removed by washing the complex followed by addition of inhibitors and 0.1 fmol of P33 labeled target DNA. The reaction was stopped by adding EDTA to a final concentration of 10 mM. Samples were counted in TopCountNXT (Packard) and the CPM was used as a measure of integration. The reaction condition was as described in A. Engelman and R. Craigie, J. Virol. 69, 5908-5911 (1995). The sequences of substrate and target DNA were described in Nucleic Acid Research 22, 1121-1122 (1994). Activity equal to A refers to a compound having IC50=<10 nM while B and C denote compounds having […] and IC50>100 nM respectively.
In the case of `CN(CCO)C(=O)C(=O)NC12CCC(CC1)Cn1c2nc(C(=O)NCc2ccc(F)cc2)c(O)c1=O` [Example 81, N′-(2-((4-Fluorobenzyl)carbamoyl)-3-hydroxy-4-oxo-6,7,8,9-tetrahydro-7,10-ethanopyrimido[1,2-a]azepin-10(4H)-yl)-N-(2-hydroxyethyl)-N-methylethanediamide], the IC50 was below 10 nM.
As to `CN(C)C(=O)C(=O)NC12CCC(CC1)Cn1c2nc(C(=O)NCc2cccc(F)c2)c(O)c1=O` [Example 371], the IC50 is below 10 nM.
Next, `CN(C)C(=O)C(=O)NC12CCC(CC1)Cn1c2nc(C(=O)NC2CCN(Cc3ccccc3)C2)c(O)c1=O` (stereo not shown) [Example 356]: above 100 nM; `Cc1c(CN(C)C(=O)C(=O)NC23CCC(CC2)Cn2c3nc(C(=O)NCc3ccc(F)cc3)c(O)c2=O)cnn1C` [Example 95, N-((1,5-Dimethyl-1H-pyrazol-4-yl)methyl)-N′-(2-((4-fluorobenzyl)carbamoyl)-3-hydroxy-4-oxo-6,7,8,9-tetrahydro-7,10-ethanopyrimido[1,2-a]azepin-10(4H)-yl)-N-methylethanediamide]: below 10 nM.
As for `COc1cc(F)ccc1CNC(=O)c1nc2n(c(=O)c1O)CC1CCC2(NC(=O)C(=O)N(C)C)CC1` [Example 116, N′-(2-((4-Fluoro-2-methoxybenzyl)carbamoyl)-3-hydroxy-4-oxo-6,7,8,9-tetrahydro-7,10-ethanopyrimido[1,2-a]azepin-10(4H)-yl)-N,N-dimethylethanediamide], the IC50 is below 10 nM.
Next, `CN(C)C(=O)C(=O)NC12CCC(CC1)Cn1c2nc(C(=O)NCCOc2ccccc2)c(O)c1=O` [Example 355]: below 10 nM; `CC(=O)N1CC[C@H]1C(=O)NC12CCC(CC1)Cn1c2nc(C(=O)NCc2ccc(F)cc2)c(O)c1=O` [Example 267, 7,10-Ethanopyrimido[1,2-a]azepine-2-carboxamide, 10-[[[(2S)-1-acetyl-2-azetidinyl]carbonyl]amino]-N-[(4-fluorophenyl)methyl]-4,6,7,8,9,10-hexahydro-3-hydroxy-4-oxo-]: below 10 nM; `CC(=O)NC12CCC(CC1)n1c2nc(C(=O)NCc2ccc(F)cc2)c(O)c1=O` [Example 12, 6,9-Ethano-4H-pyrido[1,2-a]pyrimidine-2-carboxamide, 9-(acetylamino)-N-[(4-fluorophenyl)methyl]-6,7,8,9-tetrahydro-3-hydroxy-4-oxo-]: below 10 nM.
Next, `CN(C)C(=O)C(=O)NC12CCC(CC1)n1c2nc(C(=O)NCc2ccc(F)cc2)c(O)c1=O` [Example 16, Ethanediamide, N′-[2-[[[(4-fluorophenyl)methyl]amino]carbonyl]-7,8-dihydro-3-hydroxy-4-oxo-6,9-ethano-4H-pyrido[1,2-a]pyrimidin-9(6H)-yl]-N,N-dimethyl-]: below 10 nM.
Next, `O=C(CN1CCCC1=O)NC12CCC(CC1)Cn1c2nc(C(=O)NCc2ccc(F)cc2)c(O)c1=O` [Example 43, N-(4-Fluorobenzyl)-3-hydroxy-4-oxo-10-(((2-oxo-1-pyrrolidinyl)acetyl)amino)-4,6,7,8,9,10-hexahydro-7,10-ethanopyrimido[1,2-a]azepine-2-carboxamide]: below 10 nM; `CCN(CC)C(=O)C(=O)NC12CCC(CC1)Cn1c2nc(C(=O)NCc2ccc(F)cc2)c(O)c1=O` [Example 97, N,N-Diethyl-N′-(2-((4-fluorobenzyl)carbamoyl)-3-hydroxy-4-oxo-6,7,8,9-tetrahydro-7,10-ethanopyrimido[1,2-a]azepin-10(4H)-yl)ethanediamide]: below 10 nM.
For the compound `Cn1cccc1C(=O)C(=O)NC12CCC(CC1)Cn1c2nc(C(=O)NCc2ccc(F)cc2)c(O)c1=O` [Example 45, N-(4-Fluorobenzyl)-3-hydroxy-10-(((1-methyl-1H-pyrrol-2-yl) (oxo)acetyl)amino)-4-oxo-4,6,7,8,9,10-hexahydro-7,10-ethanopyrimido[1,2-a]azepine-2-carboxamide], the IC50 is below 10 nM.
Next, `CN(C12CCC(CC1)Cn1c2nc(C(=O)NCc2ccc(F)cc2)c(O)c1=O)S(C)(=O)=O` [Example 155, N-(4-Fluorobenzyl)-3-hydroxy-10-(methyl(methylsulfonyl)amino)-4-oxo-4,6,7,8,9,10-hexahydro-7,10-ethanopyrimido[1,2-a]azepine-2-carboxamide]: below 10 nM; `CCN(CC)C(=O)C(=O)NC12CCC(CCn3c1nc(C(=O)NCc1ccc(F)cc1)c(O)c3=O)C2` (stereo not shown) [Example 201]: below 10 nM; `COC1CN(C(=O)C(=O)NC23CCC(CC2)Cn2c3nc(C(=O)NCc3ccc(F)cc3)c(O)c2=O)C1` [Example 66, N-(4-Fluorobenzyl)-3-hydroxy-10-(((3-methoxy-1-azetidinyl) (oxo)acetyl)amino)-4-oxo-4,6,7,8,9,10-hexahydro-7,10-ethanopyrimido[1,2-a]azepine-2-carboxamide]: below 10 nM.
Take `O=C(NC12CCC(CC1)Cn1c2nc(C(=O)NCc2ccc(F)cc2)c(O)c1=O)C(=O)N1CCC(F)(F)C1` [Example 70, 10-(((3,3-Difluoro-1-pyrrolidinyl)(oxo)acetyl)amino)-N-(4-fluorobenzyl)-3-hydroxy-4-oxo-4,6,7,8,9,10-hexahydro-7,10-ethanopyrimido[1,2-a]azepine-2-carboxamide]: the IC50 is below 10 nM.
Next, `COc1ccc(CCNC(=O)c2nc3n(c(=O)c2O)CC2CCC3(NC(=O)C(=O)N(C)C)CC2)cc1` [Example 346]: above 100 nM; `O=C(NC12CCC(CC1)Cn1c2nc(C(=O)NCc2ccc(F)cc2)c(O)c1=O)C(=O)N1CCC(F)CC1` [Example 102, N-(4-Fluorobenzyl)-10-(((4-fluoro-1-piperidinyl)(oxo)acetyl)amino)-3-hydroxy-4-oxo-4,6,7,8,9,10-hexahydro-7,10-ethanopyrimido[1,2-a]azepine-2-carboxamide]: below 10 nM.
`Cc1cc(CNC(=O)c2nc3n(c(=O)c2O)CC2CCC3(NC(=O)c3ccncc3)CC2)ccc1F` [Example 309, 7,10-Ethanopyrimido[1,2-a]azepine-2-carboxamide, N-[(4-fluoro-3-methylphenyl)methyl]-4,6,7,8,9,10-hexahydro-3-hydroxy-4-oxo-10-[(4-pyridinylcarbonyl)amino]-]: the IC50 was below 10 nM.
For the compound `CN(C)C(=O)C(=O)NC12CCC(CC1)Cn1c2nc(C(=O)NCc2csc(-c3ccccc3)n2)c(O)c1=O` [Example 359], the IC50 is below 10 nM.
Consider `Cc1cc(CNC(=O)c2nc3n(c(=O)c2O)CC2CCC3(NC(=O)C(C)(C)n3cc(C(=O)N4CCN(C)CC4)nn3)CC2)ccc1F` [Example 288, 7,10-Ethanopyrimido[1,2-a]azepine-2-carboxamide, N-[(4-fluoro-3-methylphenyl)methyl]-4,6,7,8,9,10-hexahydro-3-hydroxy-10-[[2-methyl-2-[4-[(4-methyl-1-piperazinyl)carbonyl]-1H-1,2,3-triazol-1-yl]-1-oxopropyl]amino]-4-oxo-], for which the IC50 is below 10 nM.
`CO[C@H]1C[C@@H](C(=O)NC23CCC(CC2)Cn2c3nc(C(=O)NCc3ccc(F)c(C)c3)c(O)c2=O)N(C(=O)c2cccn2C)C1` [Example 279, 7,10-Ethanopyrimido[1,2-a]azepine-2-carboxamide, N-[(4-fluoro-3-methylphenyl)methyl]-4,6,7,8,9,10-hexahydro-3-hydroxy-10-[[[(2S,4S)-4-methoxy-1-[(1-methyl-1H-pyrrol-2-yl)carbonyl]-2-pyrrolidinyl]carbonyl]amino]-4-oxo-]: the IC50 is below 10 nM.
Take `CN(C)CC(=O)NC12CCC(CC1)Cn1c2nc(C(=O)NCc2ccc(F)cc2)c(O)c1=O` [Example 29, 10-((N,N-Dimethylglycyl)amino)-N-(4-fluorobenzyl)-3-hydroxy-4-oxo-4,6,7,8,9,10-hexahydro-7,10-ethanopyrimido[1,2-a]azepine-2-carboxamide]: the IC50 lay in the range of 10 to 100 nM.
Next, `CN(C)C(=O)C(=O)NC12CCC(CC1)Cn1c2nc(C(=O)NCCc2ccccc2)c(O)c1=O` [Example 343]: 10 to 100 nM; `CCN(C)C(=O)C(=O)NC12CCC(CCn3c1nc(C(=O)NCc1ccc(F)cc1)c(O)c3=O)C2` (stereo not shown) [Example 204]: below 10 nM.
As to `O=C(NC12CCC(CC1)Cn1c2nc(C(=O)NCc2ccc(F)cc2)c(O)c1=O)c1cnc2ccccc2c1` [Example 315, 7,10-Ethanopyrimido[1,2-a]azepine-2-carboxamide, N-[(4-fluorophenyl)methyl]-4,6,7,8,9,10-hexahydro-3-hydroxy-4-oxo-10-[(3-quinolinylcarbonyl)amino]-], the IC50 was below 10 nM.
Then `Cc1cc(C(=O)NC23CCC(CC2)Cn2c3nc(C(=O)NCc3ccc(F)cc3)c(O)c2=O)nn1C` [Example 24, 10-(((1,5-Dimethyl-1H-pyrazol-3-yl)carbonyl)amino)-N-(4-fluorobenzyl)-3-hydroxy-4-oxo-4,6,7,8,9,10-hexahydro-7,10-ethanopyrimido[1,2-a]azepine-2-carboxamide], with below 10 nM; and `CN(C)C(=O)C(=O)NC12CCC(CC1)Cn1c2nc(C(=O)NCc2ccc(F)cc2CO)c(O)c1=O` [Example 122, N′-(2-((4-Fluoro-2-(hydroxymethyl)benzyl)carbamoyl)-3-hydroxy-4-oxo-6,7,8,9-tetrahydro-7,10-ethanopyrimido[1,2-a]azepin-10(4H)-yl)-N,N-dimethylethanediamide], with below 10 nM.
